Measured values: patent publication US8329717B2, “Pyrimidine derivatives and their use for controlling undesired plant growth” (Bayer Cropscience AG, priority 2008, dated 2012)

Tests used:
[1] = system: Abutilon theophrasti; experiment: Pre-emergence herbicidal effect; assay type: in vivo; settings: Dosage 320 g/ha, visual scoring after 3 weeks vs untreated controls, 100% = plants have died
Method in brief: (§1)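 Herbicidal effect is a visual percentage of damage relative to untreated controls, taken after 3 weeks in the greenhouse. Treatment went onto the covering soil directly after sowing, as emulsion or suspension at 600 to 800 l/ha water with 0.2% wetting agent, dosed in g/ha.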

[2] = system: Alopecurus myosuroides; experiment: Pre-emergence herbicidal effect; assay type: in vivo; settings: Dosage 320 g/ha, visual scoring after 3 weeks vs untreated controls, 100% = plants have died
Method in brief: as §1

[3] = system: Amaranthus retroflexus; experiment: Pre-emergence herbicidal effect; assay type: in vivo; settings: Dosage 320 g/ha, visual scoring after 3 weeks vs untreated controls, 100% = plants have died
Method in brief: as §1

[4] = system: Avena fatua; experiment: Pre-emergence herbicidal effect; assay type: in vivo; settings: Dosage 320 g/ha, visual scoring after 3 weeks vs untreated controls, 100% = plants have died
Method in brief: as §1

[5] = system: Cyperus esculentus; experiment: Pre-emergence herbicidal effect; assay type: in vivo; settings: Dosage 320 g/ha, visual scoring after 3 weeks vs untreated controls, 100% = plants have died
Method in brief: as §1

[6] = system: Echinochloa crus-galli; experiment: Pre-emergence herbicidal effect; assay type: in vivo; settings: Dosage 320 g/ha, visual scoring after 3 weeks vs untreated controls, 100% = plants have died
Method in brief: as §1

[7] = system: Lolium multiflorum; experiment: Pre-emergence herbicidal effect; assay type: in vivo; settings: Dosage 320 g/ha, visual scoring after 3 weeks vs untreated controls, 100% = plants have died
Method in brief: as §1

[8] = system: Matricaria inodora; experiment: Pre-emergence herbicidal effect; assay type: in vivo; settings: Dosage 320 g/ha, visual scoring after 3 weeks vs untreated controls, 100% = plants have died
Method in brief: as §1

[9] = system: Setaria viridis; experiment: Pre-emergence herbicidal effect; assay type: in vivo; settings: Dosage 320 g/ha, visual scoring after 3 weeks vs untreated controls, 100% = plants have died
Method in brief: as §1

[10] = system: Stellaria media; experiment: Pre-emergence herbicidal effect; assay type: in vivo; settings: Dosage 320 g/ha, visual scoring after 3 weeks vs untreated controls, 100% = plants have died
Method in brief: as §1

[11] = system: Veronica persica; experiment: Pre-emergence herbicidal effect; assay type: in vivo; settings: Dosage 320 g/ha, visual scoring after 3 weeks vs untreated controls, 100% = plants have died
Method in brief: as §1

[12] = system: PHBPU; experiment: Post-emergence herbicidal effect; assay type: in vivo; settings: Dosage 320 g/ha, one-leaf stage, visual scoring after ca. 3 weeks vs untreated controls, 100% = plants have died
Method in brief: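 Greenhouse weeds or crops in sandy loam treated at one-leaf stage (2 to 3 weeks after sowing) by spraying WP or EC formulations at 600 to 800 l/ha water with 0.2% wetting agent; dose in g/ha. Visual % effect scored after ca. 3 weeks against untreated controls (100% = dead, 0% = as control).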

[13] = system: Abutilon theophrasti; experiment: Post-emergence herbicidal effect; assay type: in vivo; settings: Dosage 320 g/ha, one-leaf stage, visual scoring after ca. 3 weeks vs untreated controls, 100% = plants have died
Method in brief: (§2)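 Greenhouse-grown plants in sandy loam sprayed at one-leaf stage (2-3 weeks after sowing) with WP or EC formulations at 600 to 800 l/ha water plus 0.2% wetting agent; dose in g/ha. Visual % effect versus untreated controls scored after ca. 3 weeks (100% = dead).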

[14] = system: Alopecurus myosuroides; experiment: Post-emergence herbicidal effect; assay type: in vivo; settings: Dosage 320 g/ha, one-leaf stage, visual scoring after ca. 3 weeks vs untreated controls, 100% = plants have died
Method in brief: as §2

[15] = system: Amaranthus retroflexus; experiment: Post-emergence herbicidal effect; assay type: in vivo; settings: Dosage 320 g/ha, one-leaf stage, visual scoring after ca. 3 weeks vs untreated controls, 100% = plants have died
Method in brief: as §2

[16] = system: Avena fatua; experiment: Post-emergence herbicidal effect; assay type: in vivo; settings: Dosage 320 g/ha, one-leaf stage, visual scoring after ca. 3 weeks vs untreated controls, 100% = plants have died
Method in brief: as §2

[17] = system: Echinochloa crus-galli; experiment: Post-emergence herbicidal effect; assay type: in vivo; settings: Dosage 320 g/ha, one-leaf stage, visual scoring after ca. 3 weeks vs untreated controls, 100% = plants have died
Method in brief: as §2

[18] = system: Lolium multiflorum; experiment: Post-emergence herbicidal effect; assay type: in vivo; settings: Dosage 320 g/ha, one-leaf stage, visual scoring after ca. 3 weeks vs untreated controls, 100% = plants have died
Method in brief: as §2

[19] = system: Matricaria inodora; experiment: Post-emergence herbicidal effect; assay type: in vivo; settings: Dosage 320 g/ha, one-leaf stage, visual scoring after ca. 3 weeks vs untreated controls, 100% = plants have died
Method in brief: as §2

[20] = system: Polygonum convolvulus; experiment: Post-emergence herbicidal effect; assay type: in vivo; settings: Dosage 320 g/ha, one-leaf stage, visual scoring after ca. 3 weeks vs untreated controls, 100% = plants have died
Method in brief: as §2

[21] = system: Setaria viridis; experiment: Post-emergence herbicidal effect; assay type: in vivo; settings: Dosage 320 g/ha, one-leaf stage, visual scoring after ca. 3 weeks vs untreated controls, 100% = plants have died
Method in brief: as §2

[22] = system: Stellaria media; experiment: Post-emergence herbicidal effect; assay type: in vivo; settings: Dosage 320 g/ha, one-leaf stage, visual scoring after ca. 3 weeks vs untreated controls, 100% = plants have died
Method in brief: as §2

[23] = system: Veronica persica; experiment: Post-emergence herbicidal effect; assay type: in vivo; settings: Dosage 320 g/ha, one-leaf stage, visual scoring after ca. 3 weeks vs untreated controls, 100% = plants have died
Method in brief: as §2

[24] = system: Viola tricolor; experiment: Post-emergence herbicidal effect; assay type: in vivo; settings: Dosage 320 g/ha, one-leaf stage, visual scoring after ca. 3 weeks vs untreated controls, 100% = plants have died
Method in brief: as §2

[25] = logp (HCOOH), chemicophysical data; settings: for chromatographic logP: HCOOH (formic acid)
[26] = system: Polygonum convolvulus; experiment: Pre-emergence herbicidal effect; assay type: in vivo; settings: Dosage 320 g/ha, visual scoring after 3 weeks vs untreated controls, 100% = plants have died
Method in brief: as §1

[27] = system: Viola tricolor; experiment: Pre-emergence herbicidal effect; assay type: in vivo; settings: Dosage 320 g/ha, visual scoring after 3 weeks vs untreated controls, 100% = plants have died
Method in brief: as §1

Structure (SMILES)	Pre-emergence herbicidal effect ABUTH [1]	Pre-emergence herbicidal effect ALOMY [2]	Pre-emergence herbicidal effect AMARE [3]	Pre-emergence herbicidal effect AVEFA [4]	Pre-emergence herbicidal effect CYPES [5]	Pre-emergence herbicidal effect ECHCG [6]	Pre-emergence herbicidal effect LOLMU [7]	Pre-emergence herbicidal effect MATIN [8]	Pre-emergence herbicidal effect SETVI [9]	Pre-emergence herbicidal effect STEME [10]	Pre-emergence herbicidal effect VERPE [11]	Post-emergence herbicidal effect PHBPU [12]	Post-emergence herbicidal effect ABUTH [13]	Post-emergence herbicidal effect ALOMY [14]	Post-emergence herbicidal effect AMARE [15]	Post-emergence herbicidal effect AVEFA [16]	Post-emergence herbicidal effect ECHCG [17]	Post-emergence herbicidal effect LOLMU [18]	Post-emergence herbicidal effect MATIN [19]	Post-emergence herbicidal effect POLCO [20]	further results
Cc1ccc2c(c1)[C@H](Nc1nc(C)c(C#N)c(N)n1)[C@@H](C)C2 [Example 1.17]	100%	100%	100%	90%	90%	100%	100%	100%	100%	100%	100%	90%	87%	90%	97%	80%	93%	93%	85%	80%	Post-emergence herbicidal effect SETVI [21]: 90%; Post-emergence herbicidal effect STEME [22]: 97%; Post-emergence herbicidal effect VERPE [23]: 87%; Post-emergence herbicidal effect VIOTR [24]: 90%; logp (HCOOH) [25]: solid, m.p.: 166.4° C.; logp (HCOOH): 2.40; 1H-NMR (CDCl3, 400 MHZ, δ in ppm): 1.25
Cc1ccc2c(c1)[C@H](Nc1ncc(Cl)c(N)n1)[C@@H](C)C2 [Example 1.105]	100%	100%	100%	80%	100%	100%	100%	100%	100%	100%	100%	90%	90%	80%	90%	90%	100%	90%	90%	80%	Pre-emergence herbicidal effect POLCO [26]: 100%; Pre-emergence herbicidal effect VIOTR [27]: 100%; Post-emergence herbicidal effect SETVI [21]: 90%; Post-emergence herbicidal effect STEME [22]: 90%; Post-emergence herbicidal effect VIOTR [24]: 80%; logp (HCOOH) [25]: wax-like; logp (HCOOH): 1.27; 1H-NMR (CDCl3, 400 MHZ, δ in ppm): 1.30 (d, 3H, CH3);
Cc1ccc2c(c1)[C@H](Nc1nc(N)c(C#N)c(-c3ccccc3F)n1)[C@@H](C)C2 [Example 1.104, 4-Amino-2-{[(1R,2S)-2,6-dimethyl-2,3-dihydro-1H-inden-1-yl]amino}-6-(2-fluorophenyl)pyrimidine-5-carbonitrile]																					melting point: 67 to 68 °C; chromatographic logP [25]: 3.65
Nc1nc(N[C@@H]2CCCc3ccccc32)ncc1C(F)(F)F [Example 1.108, N2-[(1R)-1,2,3,4-Tetrahydronaphthalen-1-yl]-5-(trifluoromethyl)pyrimidine-2,4-diamine]																					melting point: 130.8 °C; chromatographic logP [25]: 1.64
C#Cc1cnc(N[C@H]2c3cc(C)ccc3C[C@@H]2C)nc1N [Example 1.119, N2-[(1R,2S)-2,6-Dimethyl-2,3-dihydro-1H-inden-1-yl]-5-ethynylpyrimidine-2,4-diamine]																					melting point: 99 °C; chromatographic logP [25]: 1.43
Cc1ccc2c(c1)[C@H](Nc1ncc(C#N)c(N)n1)[C@@H](C)C2 [Example 1.35]	100%	100%	100%	100%	100%	100%	100%	100%	100%	100%	100%	90%	95%	100%	93%	95%	100%	90%	85%	90%	Pre-emergence herbicidal effect POLCO [26]: 100%; Pre-emergence herbicidal effect VIOTR [27]: 100%; Post-emergence herbicidal effect SETVI [21]: 95%; Post-emergence herbicidal effect STEME [22]: 95%; Post-emergence herbicidal effect VERPE [23]: 95%; Post-emergence herbicidal effect VIOTR [24]: 90%; logp (HCOOH) [25]: wax-like; logp (HCOOH): 2.35; 1H-NMR (CDCl3, 400 MHZ, δ in ppm): 1.25 (d, 3H, CH3);
